The source of these data is patent publication US9822105B2, “Diaminotriazine compounds as herbicides” (BASF SE, priority 2014, dated 2017).

Assay [1] has as its system ABUTH. In words: Greenhouse test, pre-emergence treatment. The class given is in vivo, Abutilon theophrasti. The source says:
(§1) The seeds of the test plants were sown separately for each species. For the pre-emergence treatment, the active ingredients, which had been suspended or emulsified in water, were applied directly after sowing by means of finely distributing nozzles. The containers were irrigated gently to promote germination and growth and subsequently covered with transparent plastic hoods until the plants had rooted. This cover caused uniform germination of the test plants, unless this had been impaired by the active ingredients. Depending on the species, the plants were kept at 10-25° C. or 20-35° C., respectively. The test period extended over 2 to 4 weeks. During this time, the plants were tended, and their response to the individual treatments was evaluated. Evaluation was carried out using a scale from 0 to 100. 100 means no emergence of the plants, or complete destruction of at least the aerial moieties, and 0 means no damage, or normal course of growth. […] The plants used in the greenhouse experiments were of the following species: [table]

For a further assay, the system named is SETFA. Briefly: Greenhouse test, pre-emergence treatment. It counts as in vivo, Setaria faberi.
Description: as §1

The test system of assay [2] is AMARE. Briefly: Greenhouse test, pre-emergence treatment. It counts as in vivo, Amaranthus retroflexus. The settings on record: for pest or weed control at 250 g/ha / pest or weed control at 125 g/ha: Amaranthus retroflexus; for pest or weed control at 250 g/ha: read-out: herbicidal activity, 250 g/ha; for pest or weed control at 125 g/ha: read-out: herbicidal activity, 125 g/ha.
Description: as §1

The test system of the next assay is CHEAL. In words: Greenhouse test, post-emergence treatment. The class given is in vivo, Chenopodium album. To be noted: 0.0312 kg/ha. The text has this: (§2) The seeds of the test plants were sown separately for each species. For the post-emergence treatment, the test plants were first grown to a height of […], depending on the plant habit, and only then treated with the active ingredients which had been suspended or emulsified in water. For this purpose, the test plants were either sown directly and grown in the same containers, or they were first grown separately as seedlings and transplanted into the test containers a few days prior to treatment. Depending on the species, the plants were kept at 10-25° C. or 20-35° C., respectively. The test period extended over 2 to 4 weeks. During this time, the plants were tended, and their response to the individual treatments was evaluated. Evaluation was carried out using a scale from 0 to 100. 100 means no emergence of the plants, or complete destruction of at least the aerial moieties, and 0 means no damage, or normal course of growth. […] The plants used in the greenhouse experiments were of the following species: [table]

Another assay has as its system BRSNW. In words: Greenhouse test, post-emergence treatment. It counts as in vivo, Winter rape. The settings on record: 0.0312 kg/ha.
Description: as §2

The subject of assay [3] is AMARE. In words: Greenhouse test, post-emergence treatment. It counts as in vivo, Amaranthus retroflexus.
Description: as §2

The next assay deals with ALOMY. In words: Greenhouse test, pre-emergence treatment. The class given is in vivo, Alopecurus myosuroides.
Description: as §1

The next assay concerns ECHCG. In words: Greenhouse test, pre-emergence treatment. The class given is in vivo, Echinocloa crus-galli.
Description: as §1

The next assay deals with APESV. In words: Greenhouse test, pre-emergence treatment. It counts as in vivo, Apera spica-venti. The settings on record: 250 g/ha.
Description: as §1

In assay [4] the test system is ABUTH. In words: Greenhouse test, post-emergence treatment. It counts as in vivo, Abutilon theophrasti.
Description: as §2

The next assay deals with SETVI. In words: Greenhouse test, post-emergence treatment. It counts as in vivo, Setaria viridis. The settings on record: 125 g/ha, STEVI.
Description: as §2

Setting [5] is: 500 g/ha, stated in words without grade.

Molecules are shown by their SMILES.

For `CC1Oc2ccc(F)c(Nc3nc(N)nc(C(C)(C)F)n3)c2O1` (single isomer, unassigned) [Example 7], the herbicidal activity result with ABUTH [1] (250 g/ha) is listed as “very good (a very good herbicidal activity is given at values of at least 85)”; in the assay on SETFA (250 g/ha, SETFA), “very good (a very good herbicidal activity is given at values of at least 85)”; in the assay with AMARE [2] (250 g/ha), “very good (a very good herbicidal activity is given at values of at least 85)”.
Turning to `CC1Oc2ccc(F)c(Nc3nc(N)nc(C(C)(C)F)n3)c2O1` (single isomer, unassigned) [Example 8], the herbicidal activity result with ABUTH [1] (250 g/ha) is on record as “very good (a very good herbicidal activity is given at values of at least 85)”; in the assay with SETFA (250 g/ha, SETFA) it was “very good (a very good herbicidal activity is given at values of at least 85)”; in the assay on AMARE [2] (250 g/ha) it was “very good (a very good herbicidal activity is given at values of at least 85)”.
Consider `CC(C)(F)c1nc(N)nc(Nc2c(F)ccc3c2OCO3)n1` [Example 1, N2-(5-fluoro-1,3-benzodioxo1-4-yl)-6-(1-fluoro-1-methyl-ethyl)-1,3,5-triazine-2,4-diamine], for which the herbicidal activity entry was “good (a good herbicidal activity is given at values of at least 70)” with CHEAL, “good (a good herbicidal activity is given at values of at least 70)” with BRSNW and “very good (a very good herbicidal activity is given at values of at least 85)” in the assay with AMARE [3] (0.0312 kg/ha).
Regarding `CC(C)(F)c1nc(N)nc(Nc2c(Cl)ccc3c2OCO3)n1` [Example 2], the herbicidal activity entry is “very good (a very good herbicidal activity is given at values of at least 85)” in the assay with ALOMY (0.5 kg/ha); “very good (a very good herbicidal activity is given at values of at least 85)” in the assay on SETFA (0.5 kg/ha, SETFA); “very good (a very good herbicidal activity is given at values of at least 85)” in the assay with AMARE [2] (0.5 kg/ha).
Take `CC(C)(F)c1nc(N)nc(Nc2c(Br)ccc3c2OCO3)n1` [Example 3]: the herbicidal activity entry in the assay with ALOMY (0.5 kg/ha) was “very good (a very good herbicidal activity is given at values of at least 85)”; in the assay on SETFA (0.5 kg/ha, SETFA) it was “very good (a very good herbicidal activity is given at values of at least 85)”; in the assay with AMARE [2] (0.5 kg/ha) it was “very good (a very good herbicidal activity is given at values of at least 85)”.
For the compound `Nc1nc(Nc2c(F)ccc3c2OCO3)nc(C2(Cl)CCC2)n1` [Example 5], the herbicidal activity result with ECHCG (250 g/ha) was “very good (a very good herbicidal activity is given at values of at least 85)”; with SETFA (250 g/ha, SETFA), “very good (a very good herbicidal activity is given at values of at least 85)”. In addition, the pest or weed control at 250 g/ha with AMARE [2] is no less than 85%.
For the compound `CC1(c2nc(N)nc(Nc3c(F)ccc4c3OCO4)n2)CCCCC1` [Example 6], the herbicidal activity result with APESV is “very good (a very good herbicidal activity is given at values of at least 85)”; with ALOMY (250 g/ha), “good (a good herbicidal activity is given at values of at least 70)”. Also, the pest or weed control at 250 g/ha in the assay with AMARE [2] is no less than 70%.
Consider `Nc1nc(Nc2c(Br)ccc3c2OC(F)(F)O3)nc(C2(Cl)CCCC2)n1` [Example 9], for which the herbicidal activity entry with AMARE [3] (500 g/ha) is “very good (a very good herbicidal activity is given at values of at least 85)”.
Consider `CC1(C)Oc2ccc(Cl)c(Nc3nc(N)nc(C(C)(C)F)n3)c2O1` [Example 11], for which the herbicidal activity result with ECHCG (250 g/ha), with ABUTH [1] (250 g/ha) and in the assay on AMARE [2] (250 g/ha) was “very good (a very good herbicidal activity is given at values of at least 85)” throughout.
Turning to `CC1(C)Oc2ccc(F)c(Nc3nc(N)nc(C(C)(C)F)n3)c2O1` [Example 14], the herbicidal activity entry in the assay on ECHCG (250 g/ha), in the assay on ABUTH [1] (250 g/ha) and in the assay with AMARE [2] (250 g/ha) was “very good (a very good herbicidal activity is given at values of at least 85)” in each case.
Regarding `Nc1nc(Nc2c(F)ccc3c2OCO3)nc(C2(F)CCCC2)n1` [Example 15], the herbicidal activity result in the assay with ABUTH [1] (250 g/ha) is listed as “very good (a very good herbicidal activity is given at values of at least 85)”; in the assay with SETFA (250 g/ha, SETFA) it was “very good (a very good herbicidal activity is given at values of at least 85)”; with AMARE [2] (250 g/ha), “very good (a very good herbicidal activity is given at values of at least 85)”.
Turning to `Nc1nc(Nc2c(F)ccc3c2OCO3)nc(N2CCC2)n1` [Example 18], the herbicidal activity result with ABUTH [4] (setting [5]) and in the assay on AMARE [3] (setting [5]) was “herbicidal activity” each time.
Turning to `Nc1nc(Nc2c(F)ccc3c2OCO3)nc(N2CCCCC2)n1` [Example 21], the herbicidal activity result in the assay on ABUTH [4] (500 g/ha) is recorded as “good (a good herbicidal activity is given at values of at least 70)”; in the assay on AMARE [3] (500 g/ha), “very good (a very good herbicidal activity is given at values of at least 85)”.
As to `COC1(c2nc(N)nc(Nc3c(F)ccc4c3OCO4)n2)CCCCC1` [Example 23], the herbicidal activity entry with ECHCG (125 g/ha) is reported as “good (a good herbicidal activity is given at values of at least 70)”; in the assay with SETFA (125 g/ha, SETFA), “good (a good herbicidal activity is given at values of at least 70)”. The pest or weed control at 125 g/ha in the assay on AMARE [2] is no less than 85%.
With `CC(C)(C)Cc1nc(N)nc(Nc2c(F)ccc3c2OCO3)n1` [Example 24], the herbicidal activity result in the assay on ECHCG (125 g/ha), in the assay on ABUTH [1] (125 g/ha) and in the assay on AMARE [2] (125 g/ha) was “very good (a very good herbicidal activity is given at values of at least 85)” each time.
For the compound `CC(C)Cc1nc(N)nc(Nc2c(F)ccc3c2OCO3)n1` [Example 26], the herbicidal activity entry with ECHCG (125 g/ha) is listed as “good (a good herbicidal activity is given at values of at least 70)”; in the assay with SETFA (125 g/ha, SETFA), “good (a good herbicidal activity is given at values of at least 70)”; in the assay with AMARE [2] (125 g/ha), “very good (a very good herbicidal activity is given at values of at least 85)”.
On to `Nc1nc(Nc2c(F)ccc3c2OCO3)nc(C2CCCCC2)n1` [Example 27], for which, in the assay with SETFA (125 g/ha, SETFA), the herbicidal activity result is listed as “good (a good herbicidal activity is given at values of at least 70)”. Besides, the pest or weed control at 125 g/ha in the assay with AMARE [2] was no less than 85%.
As to `CC(C)(C)c1nc(N)nc(Nc2c(F)ccc3c2OCO3)n1` [Example 29], the herbicidal activity entry with ECHCG (125 g/ha) and in the assay with ABUTH [1] (125 g/ha) was “very good (a very good herbicidal activity is given at values of at least 85)” in each case. Moreover, in the assay with AMARE [2], the pest or weed control at 125 g/ha is no less than 85%.
As to `CC(C)(F)c1nc(N)nc(Nc2c(F)c(F)cc3c2OCO3)n1` [Example 30], the herbicidal activity entry with ABUTH [4] (125 g/ha), in the assay on SETVI and in the assay on AMARE [3] (125 g/ha) was “very good (a very good herbicidal activity is given at values of at least 85)” in each case.
Turning to `CC(C)(F)c1nc(N)nc(Nc2c(Cl)c(Cl)cc3c2OCO3)n1` [Example 31], the herbicidal activity result was “good (a good herbicidal activity is given at values of at least 70)” in the assay on ECHCG (125 g/ha); “very good (a very good herbicidal activity is given at values of at least 85)” with SETFA (125 g/ha, STEFTA); “very good (a very good herbicidal activity is given at values of at least 85)” in the assay with AMARE [2] (125 g/ha).
